Measured values from PMC3510438, “The transmembrane tyrosines Y56, Y91 and Y167 play important roles in determining the affinity and transport rate of the rabbit proton-coupled peptide transporter PepT1” (The International Journal of Biochemistry & Cell Biology, 2009).
Substitutions are numbered along the chain they refer to. Where a SMILES comes first, the peptide text is derived from it. [ ]: non-standard residue; d: D form. Sar = CNCC(=O)O

Key:
[1] = system: Y56A mutation of PepT1; design: method as in Chen et al. (2000); settings: ref Chen et al. (2000); cited from earlier work
[2] = target: T1, Y56F-rPepT1 (Oryctolagus cuniculus, UniProt P36836, Y56F); design: method as in Chen et al. (2000); settings: Y56F mutant versus wild-type; ref Chen et al. (2000); cited from earlier work
T1 construct: expressed in transfected cells; host or cells: Xenopus laevis oocytes injected with cRNA
T1 sequence (P36836 1-707 Y56F): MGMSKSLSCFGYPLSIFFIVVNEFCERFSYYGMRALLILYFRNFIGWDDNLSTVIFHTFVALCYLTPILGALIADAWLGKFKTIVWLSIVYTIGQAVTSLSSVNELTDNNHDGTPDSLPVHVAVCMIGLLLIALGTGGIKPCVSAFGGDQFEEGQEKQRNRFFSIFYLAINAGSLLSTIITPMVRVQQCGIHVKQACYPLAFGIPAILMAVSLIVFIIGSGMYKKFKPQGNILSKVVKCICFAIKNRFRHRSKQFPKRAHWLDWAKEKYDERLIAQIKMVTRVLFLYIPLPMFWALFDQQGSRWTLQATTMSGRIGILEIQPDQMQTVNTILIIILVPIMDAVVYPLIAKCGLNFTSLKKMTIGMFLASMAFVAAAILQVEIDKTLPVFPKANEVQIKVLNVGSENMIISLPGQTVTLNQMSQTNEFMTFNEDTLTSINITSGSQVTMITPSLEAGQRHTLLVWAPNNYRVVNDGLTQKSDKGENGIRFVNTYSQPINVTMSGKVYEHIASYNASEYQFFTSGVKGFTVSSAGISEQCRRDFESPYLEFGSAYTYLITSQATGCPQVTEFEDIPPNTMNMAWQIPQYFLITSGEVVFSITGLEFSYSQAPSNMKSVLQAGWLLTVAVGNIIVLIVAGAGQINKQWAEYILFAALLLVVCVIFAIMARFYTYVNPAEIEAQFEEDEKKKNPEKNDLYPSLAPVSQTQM

[3] = system: hPepT1 with mutations of Y167; design: method as in Yeung et al., 1998; settings: transfected HEK293 cells; ref Yeung et al., 1998; cited from earlier work
[4] = target: T1, Y56F-rPepT1; assay: Competition of [3H]-D-Phe-L-Gln uptake into Xenopus oocytes, Ki; format: cell-based, rabbit; settings: pHout 5.5, n = 4; for Ki: inhibition of 0.4 μM [3H]-D-Phe-L-Gln uptake
Protocol: rPepT1 constructs were linearised with XbaI (New England Biolabs, UK) and cRNA generated by in vitro transcription (T7 mMessage mMachine, Ambion, Cambridgeshire, UK).
As a control non-injected oocytes were also incubated in uptake medium with D-Phe-L-Gln as above.

[5] = target: T2, wild-type rPepT1 (Oryctolagus cuniculus, UniProt P36836); assay: Competition of [3H]-D-Phe-L-Gln uptake into Xenopus oocytes, Ki by method of Deves and Boyd; format: cell-based, rabbit; settings: pHout 5.5; inhibition of 0.4 μM [3H]-D-Phe-L-Gln uptake; n = 4
T2 construct: expressed in transfected cells; host or cells: Xenopus laevis oocytes injected with cRNA
T2 sequence (P36836 1-707): T1 sequence (P36836 1-707 Y56F) with F56Y
Protocol: rPepT1 constructs were linearised with XbaI (New England Biolabs, UK) and cRNA generated by in vitro transcription (T7 mMessage mMachine, Ambion, Cambridgeshire, UK). Xenopus laevis oocytes were obtained under MS222 anaesthesia (0.2%, w/v) in accordance with the UK Animals (Scientific Procedures) Act, 1986, and maintained at 18 °C in modified Barth's medium (88 mM NaCl, 1 mM KCl, 0.82 mM MgSO4, 2.4 mM NaHCO3, 0.42 mM CaCl2, 10 mM Hepes, 5 mM sodium pyruvate, 50 μg ml^−1 gentamicin (Fluka, Poole, UK), adjusted to pH 7.6 with 1 M NaOH). Transport measurements were performed at least 72 h after micro-injection of oocytes with 27nl cRNA (1 μg/μl), with medium changed daily.
Uptake of [^3H]-D-Phe-L-Gln (17.4 Ci/mmole, custom synthesised, Cambridge Research Biochemicals, Stockton-on-Tees, UK) was performed as previously described ([Meredith, 2004]). Briefly, 5 oocytes were incubated in 100 μl of uptake medium (95 mM NaCl, 2 mM KCl, 1 mM CaCl2, 0.42 mM MgCl2, 10 mM Tris/Hepes pH 7.4 or Tris/Mes pH 5.5) with tracer (0.4 μM) [^3H]-D-Phe-L-Gln. After incubation, the oocytes were washed sequentially five times in 1 ml of ice-cold 120 mM NaCl solution, lysed individually with 100 μl 2% (w/v) SDS and liquid scintillation counted. As a control non-injected oocytes were also incubated in uptake medium with D-Phe-L-Gln as above.
The affinity of wild-type and mutant rPepT1 transporters were assessed by competition studies with 0.4 μM [^3H]-D-Phe-L-Gln and Gly-L-Gln present in the uptake medium in concentrations from 0 to 2 mM using the protocol above, and the Ki calculated using the method of [Deves and Boyd (1989)].

SMILES | transport [1] | reduction of transport [2] | uptake [3] | Ki [4] | fold change in affinity (Ki), wild-type rPepT1 versus Y56F-rPepT1 [4] | Ki [5]
CC(C)C[C@H](NC(=O)CN)C(=O)O [Gly-L-Leu] | lost completely | approximately 85% |  |  |  | 
CN(CC(=O)O)C(=O)CN [Gly-Sar] (H-Gly-[Sar]-OH) |  |  | no measurable uptake |  |  | 
NC(=O)[C@H](Cc1ccc(O)cc1)NC(=O)[C@@H](N)Cc1ccccc1 [Phe-Tyr-NH2] (H-Phe-Tyr-NH2) |  |  |  | 72.9 ± 20.5 µM | 64.4 ± 26.0 fold | 6600 ± 1620 µM
NC(Cc1ccccc1)C(=O)NC(Cc1ccc(O)cc1)C(=O)O (stereo not drawn) [Phe-Tyr] (H-Phe-Tyr-OH; configuration not given here) |  |  |  | 0.86 ± 0.26 µM | 336.4 ± 100.6 fold | 200 ± 30 µM
